{"source": "patent US7582762B2", "about": "“Salt and crystalline forms of (2R)-anti-5-{3-[4-(10,11-difluoromethanodibenzosuber-5-YL)piperazin-1-YL]-2-hydroxypropoxy}quinoline” (Eli Lilly and Company, priority 2001, dated 2009)", "key": {"[1]": {"test": "Incorporation of organic solvents into the crystal lattice", "assay_type": "physicochemical", "settings": "compared with trihydrochloride salt/crystal (Form I)"}, "[2]": {"test": "Moisture sorption profile over relative humidity", "assay_type": "physicochemical", "settings": "over a wide range of relative humidity; compared with trihydrochloride salt/crystal (Form I)"}, "[3]": {"test": "Thermodynamic stability of salt and crystal forms", "settings": "for thermodynamic stability relative to trihydrochloride (Form I): compared with trihydrochloride salt/crystal (Form I), hydrochloride"}}, "note": "Entries after “also recorded” stand apart in the source; their conditions may differ. Structures can show the parent of a compound that is named as a salt.", "data": [{"smiles": "Cl.Cl.Cl.Cl.Cl.O[C@@H](COc1cccc2ncccc12)CN1CCN(C2c3ccccc3C3C(c4ccccc42)C3(F)F)CC1.O[C@@H](COc1cccc2ncccc12)CN1CCN(C2c3ccccc3C3C(c4ccccc42)C3(F)F)CC1", "note": "(stereo partly drawn) [2.5 salt, (2R)-anti-5-{3-[4-(10,11-difluoromethanodibenzosuber-5-yl)piperazin-1-yl]-2-hydroxypropoxy}quinoline 2.5 hydrochloride]", "values": [{"measurement": "incorporation of organic solvents", "setting": "[1]", "result": "do not incorporate organic solvents as readily as the trihydrochloride salt and crystal"}, {"measurement": "moisture sorption (water sorbed)", "setting": "[2]", "result": "sorb less water overall over a wide range of relative humidity"}]}, {"smiles": "O[C@@H](COc1cccc2ncccc12)CN1CCN([C@@H]2c3ccccc3[C@@H]3[C@H](c4ccccc42)C3(F)F)CC1", "note": "[Form II, (2R)-anti-5-{3-[4-(10,11-difluoromethanodibenzosuber-5-yl)piperazin-1-yl]-2-hydroxypropoxy}quinoline 2.5 hydrochloride]", "values": [{"measurement": "incorporation of organic solvents", "setting": "[1]; hydrochloride", "result": "do not incorporate organic solvents as readily as Form I; also recorded: do not incorporate organic solvents as readily as the trihydrochloride salt and crystal"}, {"measurement": "thermodynamic stability relative to trihydrochloride (Form I)", "setting": "[3]", "result": "thermodynamically more stable than Form I; also recorded: thermodynamically more stable than the trihydrochloride salt and crystal"}, {"measurement": "most stable form", "setting": "[3]; organic solutions and solid state at ambient temperature/relative humidity", "result": "most stable in organic solutions and in the solid state at ambient temperature/relative humidity"}, {"measurement": "moisture sorption (water sorbed)", "setting": "[2]", "result": "sorb less water overall over a wide range of relative humidity"}]}, {"smiles": "O[C@@H](COc1cccc2ncccc12)CN1CCN([C@@H]2c3ccccc3[C@@H]3[C@H](c4ccccc42)C3(F)F)CC1", "note": "[Form III, (2R)-anti-5-{3-[4-(10,11-difluoromethanodibenzosuber-5-yl)piperazin-1-yl]-2-hydroxypropoxy}quinoline 2.5 hydrochloride]", "values": [{"measurement": "incorporation of organic solvents", "setting": "[1]; hydrochloride", "result": "do not incorporate organic solvents as readily as Form I; also recorded: do not incorporate organic solvents as readily as the trihydrochloride salt and crystal"}, {"measurement": "most stable form", "setting": "[3]; aqueous and acidic media", "result": "most stable in aqueous and acidic media"}, {"measurement": "thermodynamic stability relative to trihydrochloride (Form I)", "setting": "[3]", "result": "thermodynamically more stable than Form I; also recorded: thermodynamically more stable than the trihydrochloride salt and crystal"}, {"measurement": "moisture sorption (water sorbed)", "setting": "[2]", "result": "sorb less water overall over a wide range of relative humidity"}]}]}
